Experimental data reported in patent publication US20260217706A1, “HETEROCYCLIC COMPOUNDS, PREPARATION METHOD THEREFOR AND USE THEREOF” (GUANGZHOU YUFAN NANTU BIOTECHNOLOGIES CO., LTD, priority 2023, published 2026).

Experiments:
[1] = biological target: CBL-B protein (Homo sapiens, UniProt Q13191); test: CBL-B binding experiment (Streptavidin-Tb cryptate / Ligand L1 displacement); details: 8 nM CBL-B protein, 25° C., 60 minutes; Ki=Relative IC50/2
Procedure, shortened: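 Compounds in a 10-point DMSO series met 8 nM CBL-B protein in HEPES pH 7.5/NaCl/Triton/TCEP/BSA buffer at 25° C. for 60 min. A further 60 min at room temperature preceded the luminescence read, normalised to no-protein and DMSO wells. Ki was taken as relative IC50 divided by 2.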

[2] = system: anti-CD3 activated human PBMCs; test: Effect of compounds on the level of IL-2 secretion by anti-CD3 activated human PBMCs (IL-2 ELISA); format: cell-based; details: compound concentration at which fold change in IL-2 = 5; hPBMCs, CD3 antibody 2 μg/mL, 48 h, compound from 3 μM
Procedure, shortened: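 Human PBMCs were preincubated 1 h, then exposed to compound (10 points, 3-fold from 3 μM final) with anti-CD3 at 2 μg/mL for 48 h at 37° C. Supernatant IL-2 was measured by ELISA as fold change over DMSO.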

Sequence of CBL-B protein (Q13191 whole entry): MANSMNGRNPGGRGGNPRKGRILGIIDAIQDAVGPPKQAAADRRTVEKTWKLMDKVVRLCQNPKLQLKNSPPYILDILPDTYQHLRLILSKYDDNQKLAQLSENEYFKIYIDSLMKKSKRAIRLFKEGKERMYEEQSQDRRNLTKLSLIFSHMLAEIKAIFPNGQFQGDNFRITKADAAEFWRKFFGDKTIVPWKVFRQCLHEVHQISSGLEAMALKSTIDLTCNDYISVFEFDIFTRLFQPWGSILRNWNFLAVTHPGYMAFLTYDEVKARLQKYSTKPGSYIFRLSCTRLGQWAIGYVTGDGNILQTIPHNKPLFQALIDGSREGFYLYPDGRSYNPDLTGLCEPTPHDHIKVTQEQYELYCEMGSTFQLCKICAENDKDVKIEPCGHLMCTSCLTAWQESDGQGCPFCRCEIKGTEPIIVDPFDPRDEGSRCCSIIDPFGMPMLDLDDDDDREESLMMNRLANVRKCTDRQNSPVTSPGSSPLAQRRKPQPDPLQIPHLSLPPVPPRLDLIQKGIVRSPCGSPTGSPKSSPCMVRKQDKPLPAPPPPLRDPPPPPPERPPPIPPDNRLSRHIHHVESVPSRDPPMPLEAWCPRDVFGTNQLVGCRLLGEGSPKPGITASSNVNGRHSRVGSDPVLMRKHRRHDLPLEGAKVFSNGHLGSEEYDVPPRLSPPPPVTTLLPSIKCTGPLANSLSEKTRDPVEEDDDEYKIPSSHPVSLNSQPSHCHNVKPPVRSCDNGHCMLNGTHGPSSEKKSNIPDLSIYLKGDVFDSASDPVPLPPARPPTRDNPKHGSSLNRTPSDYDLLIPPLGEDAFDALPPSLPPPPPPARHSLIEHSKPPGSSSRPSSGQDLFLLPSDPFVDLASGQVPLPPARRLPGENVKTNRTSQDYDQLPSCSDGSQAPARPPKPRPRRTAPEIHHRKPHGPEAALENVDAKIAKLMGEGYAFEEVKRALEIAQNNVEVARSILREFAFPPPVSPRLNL

Question: What does the source list for Cn1cnnc1C1(c2cccc(-n3cc(C(F)(F)F)c4cc(CN5CCC[C@@H](CC#N)C5)[nH]c4c3=O)c2)CCC1 [Compound T080, (S)-2-(1-((6-(3-(1-(4-methyl-4H-1,2,4-triazol-3-yl)cyclobutyl)phenyl)-7-oxo-4-(trifluoromethyl)-6,7-dihydro-1H-pyrrolo[2,3-c]pyridin-2-yl)methyl)piperidin-3-yl)acetonitrile]?
Answer: Ki [1]: < 50 nM; IL-2 CFC=5/nM [2]: <500 nM

Question: For C[C@H]1CCCN(Cc2cc3c(C(F)(F)F)cn(-c4cccc(C5(c6nncn6C)CC6(CC6)C5)c4)c(=O)c3[nH]2)C1 [Compound T084, 2-[[(3S)-3-methyl-1-piperidyl]methyl]-6-[3-[5-(4-methyl-1,2,4-triazol-3-yl)spiro[2.3]hexan-5-yl]phenyl]-4-(trifluoromethyl)-1H-pyrrolo[2,3-c]pyridin-7-one], which Ki [1] is on record?
Answer: The Ki was < 50 nM.

Question: And the “IL-2 CFC=5/nM” value [2]?
Answer: Its value is <500 nM.

Question: What does the source list for CC=C1CC(c2cccc(-n3cc(C(F)(F)F)c4cc(CN5CCC[C@H](C)C5)[nH]c4c3=O)c2)(c2nncn2C)C1 (stereo partly drawn) [Compound T085, 6-[3-[3-ethylidene-1-(4-methyl-1,2,4-triazol-3-yl)cyclobutyl]phenyl]-2-[[(3S)-3-methyl-1-piperidyl]methyl]-4-(trifluoromethyl)-1H-pyrrolo[2,3-c]pyridin-7-one]?
Answer: Ki [1]: < 50 nM; IL-2 CFC=5/nM [2]: <500 nM

Question: For Cn1cnnc1C1(c2cccc(-n3cc(C(F)(F)F)c4cc(CN5C[C@H]6CCCC[C@H]6C5)[nH]c4c3=O)c2)CCC1 [Compound T086, 2-[[(3aS,7aR)-1,3,3a,4,5,6,7,7a-octahydroisoindol-2-yl]methyl]-6-[3-[1-(4-methyl-1,2,4-triazol-3-yl)cyclobutyl]phenyl]-4-(trifluoromethyl)-1H-pyrrolo[2,3-c]pyridin-7-one], which Ki [1] is on record?
Answer: Its Ki is < 50 nM.

Question: What about the “IL-2 CFC=5/nM” value [2] of the same compound?
Answer: The value was <500 nM.

Question: For Cn1cnnc1[C@]1(c2cccc(-n3cc(C(F)(F)F)c4cc(CN5C[C@@H]6CC[C@@H](C6)C5)[nH]c4c3=O)c2)C[C@H](C)C1 [Compound T087, 2-((3-azabicyclo[3.2.1]octan-3-yl)methyl)-6-(3-((1s,3s)-3-methyl-1-(4-methyl-4H-1,2,4-triazol-3-yl)cyclobutyl)phenyl)-4-(trifluoromethyl)-1,6-dihydro-7H-pyrrolo[2,3-c]pyridin-7-one], which Ki [1] is on record?
Answer: Its Ki is < 50 nM.

Question: What about the “IL-2 CFC=5/nM” value [2] of the same compound?
Answer: The value was <500 nM.

Question: What does the source list for Cn1cnnc1[C@]1(c2cccc(-n3cc(C(F)(F)F)c4cc(CN5CCCC6(CC6)C5)[nH]c4c3=O)c2)C[C@H](C)C1 [Compound T088, 2-((5-azaspiro[2.5]octan-5-yl)methyl)-6-(3-((1s,3s)-3-methyl-1-(4-methyl-4H-1,2,4-triazol-3-yl)cyclobutyl)phenyl)-4-(trifluoromethyl)-1,6-dihydro-7H-pyrrolo[2,3-c]pyridin-7-one]?
Answer: Ki [1]: < 50 nM; IL-2 CFC=5/nM [2]: <500 nM

Question: How did the Ki [1] turn out when Cn1cnnc1C1(c2cccc(-n3cc(C(F)(F)F)c4cc(CNCCCC(F)(F)F)[nH]c4c3=O)c2)CCC1 [Compound T091, 6-[3-[1-(4-methyl-1,2,4-triazol-3-yl)cyclobutyl]phenyl]-2-[(4,4,4-trifluorobutylamino)methyl]-4-(trifluoromethyl)-1H-pyrrolo[2,3-c]pyridin-7-one] was run?
Answer: The Ki was < 50 nM.

Question: And the “IL-2 CFC=5/nM” value [2]?
Answer: The value was <500 nM.

Question: For CC[C@H]1C[C@@](c2cccc(-n3cc(C(F)(F)F)c4cc(CN5CCC[C@H](C)C5)[nH]c4c3=O)c2)(c2nncn2C)C1 [Compound T092, 6-(3-((1r,3R)-3-ethyl-1-(4-methyl-4H-1,2,4-triazol-3-yl)cyclobutyl)phenyl)-2-(((S)-3-methylpiperidin-1-yl)methyl)-4-(trifluoromethyl)-1,6-dihydro-7H-pyrrolo[2,3-c]pyridin-7-one], which Ki [1] is on record?
Answer: Its Ki is < 50 nM.

Question: And the “IL-2 CFC=5/nM” value [2]?
Answer: Its value is <500 nM.

Question: CC[C@H]1C[C@](c2cccc(-n3cc(C(F)(F)F)c4cc(CN5CCC[C@H](C)C5)[nH]c4c3=O)c2)(c2nncn2C)C1 [Compound T093, 6-(3-((1s,3S)-3-ethyl-1-(4-methyl-4H-1,2,4-triazol-3-yl)cyclobutyl)phenyl)-2-(((S)-3-methylpiperidin-1-yl)methyl)-4-(trifluoromethyl)-1,6-dihydro-7H-pyrrolo[2,3-c]pyridin-7-one] was tested. Which Ki [1] did it give?
Answer: The Ki was < 50 nM.

Question: What about the “IL-2 CFC=5/nM” value [2] of the same compound?
Answer: Its value is <500 nM.

Question: With Cn1cnnc1C1(c2cccc(-n3cc(C(F)(F)F)c4cc(CNCCOC(F)(F)F)[nH]c4c3=O)c2)CCC1 [Compound T096, 6-[3-[1-(4-methyl-1,2,4-triazol-3-yl)cyclobutyl]phenyl]-2-[[2-(trifluoromethoxy)ethylamino]methyl]-4-(trifluoromethyl)-1H-pyrrolo[2,3-c]pyridin-7-one] as the compound, how does the Ki [1] read?
Answer: Its Ki is < 50 nM.

Question: What about the “IL-2 CFC=5/nM” value [2] of the same compound?
Answer: The value was <500 nM.

Question: With Cn1cnnc1C1(c2cccc(-n3cc(C(F)(F)F)c4cc(CNCCOC5CCCC5)[nH]c4c3=O)c2)CCC1 [Compound T097, 2-[[2-(cyclopentoxy)ethylamino]methyl]-6-[3-[1-(4-methyl-1,2,4-triazol-3-yl)cyclobutyl]phenyl]-4-(trifluoromethyl)-1H-pyrrolo[2,3-c]pyridin-7-one] as the compound, how does the Ki [1] read?
Answer: The Ki was < 50 nM.

Question: What about the “IL-2 CFC=5/nM” value [2] of the same compound?
Answer: Its value is <500 nM.

Question: CCNCc1cc2c(C(F)(F)F)cn(-c3cccc(C4(c5nncn5C)CCC4)c3)c(=O)c2[nH]1 [Compound T102, 2-((ethylamino)methyl)-6-(3-(1-(4-methyl-4H-1,2,4-triazol-3-yl)cyclobutyl)phenyl)-4-(trifluoromethyl)-1,6-dihydro-7H-pyrrolo[2,3-c]pyridin-7-one] was tested. Which Ki [1] did it give?
Answer: The Ki was < 50 nM.

Question: And the “IL-2 CFC=5/nM” value [2]?
Answer: The value was <500 nM.

Question: Which results are given for C[C@H]1CCCN(Cc2cc3c(C(F)(F)F)cn(-c4cc(F)cc([C@]5(c6nncn6C)C[C@H](C)C5)c4)c(=O)c3[nH]2)C1 [Compound T103, 6-(3-fluoro-5-((1r,3S)-3-methyl-1-(4-methyl-4H-1,2,4-triazol-3-yl)cyclobutyl)phenyl)-2-(((S)-3-methylpiperidin-1-yl)methyl)-4-(trifluoromethyl)-1,6-dihydro-7H-pyrrolo[2,3-c]pyridin-7-one]?
Answer: Ki [1]: < 50 nM; IL-2 CFC=5/nM [2]: <500 nM

Question: For CC(C)NCc1cc2c(C(F)(F)F)cn(-c3cccc(C4(c5nncn5C)CCC4)c3)c(=O)c2[nH]1 [Compound T104, 2-((isopropylamino)methyl)-6-(3-(1-(4-methyl-4H-1,2,4-triazol-3-yl)cyclobutyl)phenyl)-4-(trifluoromethyl)-1,6-di hydro-7H-pyrrolo[2,3-c]pyridin-7-one], which Ki [1] is on record?
Answer: Its Ki is < 50 nM.

Question: What about the “IL-2 CFC=5/nM” value [2] of the same compound?
Answer: Its value is <500 nM.

Question: Which Ki [1] does the source give for C[C@H]1CCCN(Cc2cc3c(C(F)(F)F)cn(-c4cccc(C5(c6nncn6C)CC(F)(F)C5)c4)c(=O)c3[nH]2)C1 [Compound T109, 6-[3-[3,3-difluoro-1-(4-methyl-1,2,4-triazol-3-yl)cyclobutyl]phenyl]-2-[[(3S)-3-methyl-1-piperidyl]methyl]-4-(trifluoromethyl)-1H-pyrrolo[2,3-c]pyridin-7-one] here?
Answer: Its Ki is < 50 nM.

Question: What about the “IL-2 CFC=5/nM” value [2] of the same compound?
Answer: The value was <500 nM.

Question: Which Ki [1] does the source give for C[C@@H]1CN(Cc2cc3c(C(F)(F)F)cn(-c4cccc(C5(c6nncn6C)CCC5)c4)c(=O)c3[nH]2)CCC1(F)F [Compound T111, (R)-2-((4,4-difluoro-3-methylpiperidin-1-yl)methyl)-6-(3-(1-(4-methyl-4H-1,2,4-triazol-3-yl)cyclobutyl)phenyl)-4-(trifluoromethyl)-1,6-dihydro-7H-pyrrolo[2,3-c]pyridin-7-one] here?
Answer: Its Ki is < 50 nM.

Question: And the “IL-2 CFC=5/nM” value [2]?
Answer: The value was <500 nM.

Question: With C[C@H]1CCCN(Cc2cc3c(C(F)(F)F)cn(-c4cccc(C5([C@@H](F)c6nncn6C)CC(F)(F)C5)c4)c(=O)c3[nH]2)C1 [Compound T119, 6-(3-(3,3-difluoro-1-((R)-fluoro(4-methyl-4H-1,2,4-triazol-3-yl)methyl)cyclobutyl)phenyl)-2-(((S)-3-methylpiperidin-1-yl)methyl)-4-(trifluoromethyl)-1,6-dihydro-7H-pyrrolo[2,3-c]pyridin-7-one] as the compound, how does the Ki [1] read?
Answer: Its Ki is < 50 nM.

Question: What about the “IL-2 CFC=5/nM” value [2] of the same compound?
Answer: Its value is <500 nM.

Question: C[C@H]1CCCN(Cc2cc3c(C(F)(F)F)cn(-c4cccc(C5([C@H](F)c6nncn6C)CC(F)(F)C5)c4)c(=O)c3[nH]2)C1 [Compound T120, 6-(3-(3,3-difluoro-1-((S)-fluoro(4-methyl-4H-1,2,4-triazol-3-yl)methyl)cyclobutyl)phenyl)-2-(((S)-3-methylpiperidin-1-yl)methyl)-4-(trifluoromethyl)-1,6-dihydro-7H-pyrrolo[2,3-c]pyridin-7-one] was tested. Which Ki [1] did it give?
Answer: The Ki was < 50 nM.

Question: What about the “IL-2 CFC=5/nM” value [2] of the same compound?
Answer: The value was <500 nM.

Question: With C[C@H]1CCCN(Cc2cc3c(C(F)(F)F)cn(-c4cc(C#N)cc([C@]5(c6nncn6C)C[C@@H](C)C5)c4)c(=O)c3[nH]2)C1 [Compound T121, 3-((1s,3R)-3-methyl-1-(4-methyl-4H-1,2,4-triazol-3-yl)cyclobutyl)-5-(2-(((S)-3-methylpiperidin-1-yl)methyl)-7-oxo-4-(trifluoromethyl)-1,7-dihydro-6H-pyrrolo[2,3-c]pyridin-6-yl)benzonitrile] as the compound, how does the Ki [1] read?
Answer: Its Ki is < 50 nM.

Question: What about the “IL-2 CFC=5/nM” value [2] of the same compound?
Answer: Its value is <500 nM.

Question: Which Ki [1] does the source give for C[C@H]1CCCN(Cc2cc3c(C(F)(F)F)cn(-c4cc(C#N)cc([C@]5(c6nncn6C)C[C@H](C)C5)c4)c(=O)c3[nH]2)C1 [Compound T122, 3-((1r,3S)-3-methyl-1-(4-methyl-4H-1,2,4-triazol-3-yl)cyclobutyl)-5-(2-(((S)-3-methylpiperidin-1-yl)methyl)-7-oxo-4-(trifluoromethyl)-1,7-dihydro-6H-pyrrolo[2,3-c]pyridin-6-yl)benzonitrile] here?
Answer: The Ki was < 50 nM.

Question: And the “IL-2 CFC=5/nM” value [2]?
Answer: The value was <500 nM.

Question: For C[C@H]1CCCN(Cc2cc3c(C(F)(F)F)cn(-c4cccc(C5(Cc6nncn6C)CC(F)(F)C5)c4)c(=O)c3[nH]2)C1 [Compound T126, 6-[3-[3,3-difluoro-1-[(4-methyl-1,2,4-triazol-3-yl)methyl]cyclobutyl]phenyl]-2-[[(3S)-3-methyl-1-piperidyl]methyl]-4-(trifluoromethyl)-1H-pyrrolo[2,3-c]pyridin-7-one], which Ki [1] is on record?
Answer: Its Ki is < 50 nM.

Question: And the “IL-2 CFC=5/nM” value [2]?
Answer: Its value is <500 nM.
